According to patent publication US5399681A, “Method for preparing N^6 -substituted NAD, NADP or FAD” (Gesellschaft fur Biotechnologische Forschung mbH (GBF), priority 1986, dated 1995):

Target: T1, yeast alcohol dehydrogenase (Saccharomyces cerevisiae, UniProt P00330)
T1 sequence (P00330 1-348): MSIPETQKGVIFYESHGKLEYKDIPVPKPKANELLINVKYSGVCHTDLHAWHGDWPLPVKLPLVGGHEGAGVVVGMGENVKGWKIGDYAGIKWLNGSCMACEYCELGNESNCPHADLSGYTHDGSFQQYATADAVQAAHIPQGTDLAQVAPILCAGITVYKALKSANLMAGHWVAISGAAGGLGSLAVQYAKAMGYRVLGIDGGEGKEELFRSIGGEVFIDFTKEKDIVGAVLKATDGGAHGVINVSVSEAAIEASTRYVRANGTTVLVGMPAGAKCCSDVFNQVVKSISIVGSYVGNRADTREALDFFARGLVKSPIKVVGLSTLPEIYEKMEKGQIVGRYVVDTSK
Test: Enzymatic reducibility with the reaction catalyzed by yeast alcohol dehydrogenase
Type: biochemical
Conditions: 0.1M tris/HCl pH 8.2, room temperature, 0.1M ethanol, 7 mM semicarbazide/HCl, 0.1 mM coenzyme free or polymer-bound, 0.3 mg alcohol dehydrogenase
Procedure: The enzymatic reducibility of the water-soluble polymer-bound N^6 -(2-aminoethyl)-NAD derivatives was determined compared with N^6 -(2-aminoethyl)-NAD with the reaction catalyzed by yeast alcohol dehydrogenase under the following conditions:
0.1M tris/HCl, pH 8.2, room temperature
0.1 mM N^6 -(2-aminoethyl)-NAD
0.3 mg alcohol dehydrogenase
Note: For N^6 -(2-aminoethyl)-NAD and N^6 -(2-aminoethyl)-NADH derivatives ε267 =21000 M^-1 cm^-1 and ε340 =6220 M^-1 cm^-1 as extiction coefficients.

Molecule	Reducibility %
NCCNc1ncnc2c1ncn2[C@@H]1O[C@H](COP(=O)(O)OP(=O)([O-])OC[C@H]2O[C@@H]([n+]3cccc(C(N)=O)c3)[C@H](O)[C@@H]2O)[C@@H](O)[C@H]1O [N^6-(2-aminoethyl)-NAD]	100%
dextran-N^6 -(2-aminoethyl)-NAD	90%
poly-(divinyl ether/maleic acid)-N^6 -(2-aminoethyl)-NAD	60%
poly-(ethylene/maleic acid)-N^6 -(2-aminoethyl)-NAD	60%
poly-(methylvinyl ether/maleic acid)-N^6 -(2-aminoethyl)-NAD	70%
polyethylene glycol N^6 -(2-aminoethyl)-NAD	90%
polyvinylpyrrolidone N^6 -(2-aminoethyl)-NAD	90%

Same assay, conditions: catalyzed by beer yeast alcohol dehydrogenase

Molecule	Enzymatic reduction to N^6 -(2-aminoethyl)-NADH (in words)
NCCNc1ncnc2c1ncn2[C@@H]1O[C@H](COP(=O)(O)OP(=O)([O-])OC[C@H]2O[C@@H]([n+]3cccc(C(N)=O)c3)[C@H](O)[C@@H]2O)[C@@H](O)[C@H]1O [N^6-(2-aminoethyl)-NAD]	Quantitative reduction

Target: T2, yeast glucose 6-phosphate dehydrogenase (Saccharomyces cerevisiae, UniProt P11412)
T2 sequence (P11412 1-505): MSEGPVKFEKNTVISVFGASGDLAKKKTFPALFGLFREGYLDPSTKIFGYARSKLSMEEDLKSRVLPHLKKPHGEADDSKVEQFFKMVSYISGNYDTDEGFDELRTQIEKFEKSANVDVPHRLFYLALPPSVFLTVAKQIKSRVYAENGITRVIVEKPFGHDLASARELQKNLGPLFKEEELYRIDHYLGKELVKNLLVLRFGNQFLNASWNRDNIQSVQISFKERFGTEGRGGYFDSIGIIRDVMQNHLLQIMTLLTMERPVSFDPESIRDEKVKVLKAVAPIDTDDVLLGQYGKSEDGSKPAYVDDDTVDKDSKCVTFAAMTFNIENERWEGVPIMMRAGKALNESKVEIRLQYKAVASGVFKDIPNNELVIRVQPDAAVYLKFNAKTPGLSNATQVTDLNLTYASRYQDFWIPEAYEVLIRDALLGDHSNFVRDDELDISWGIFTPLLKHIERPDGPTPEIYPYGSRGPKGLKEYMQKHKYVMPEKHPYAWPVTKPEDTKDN
Test: Enzymatic reducibility with the reaction catalyzed by yeast glucose 6-phosphate dehydrogenase
Type: biochemical
Conditions: 0.05M triethanolamine/HCl pH 8.0, room temperature, 5.5 mM MgCl2, 4.5 mM glucose-6-phosphate, 0.1 mM coenzyme free or polymer-bound, 30 μg glucose-6-phosphate dehydrogenase
Procedure: The enzymatic reducibility of the water-soluble polymer-bound N^6 -(2-aminoethyl)-NADP derivatives was determined compared with N^6 -(2-aminoethyl)-NADP with the reaction catalyzed by yeast glucose 6-phosphate dehydrogenase under the following conditions:
0.05M triethanolamine/HCl, pH 8.0, room temperature
4.5 mM glucose-6-phosphate
0.1 mM N^6 -(2-aminoethyl)-NADP (free or polymer-bound)
30 μg glucose-6-phosphate dehydrogenase
Note: For the N^6 -(2-aminoethyl)NADP and ^6 -(2-aminoethyl)-NADPH derivatives ε267 =21000 M^-1 cm^-1 and ε340 =6220 M^-1 cm^-1 were assumed as extinction coefficients.

Molecule	Reducibility %
NCCNc1ncnc2c1ncn2[C@@H]1O[C@H](COP(=O)(O)OP(=O)([O-])OC[C@H]2O[C@@H]([n+]3cccc(C(N)=O)c3)[C@H](O)[C@@H]2O)[C@@H](O)[C@H]1OP(=O)(O)O [N^6-(2-aminoethyl)-NADP]	100%
PEG (Mr =4000)-N^6 -(2-aminoethyl)-NADP	95%
PEG (Mr =20000)-N^6 -(2-aminoethyl)-NADP	95%
poly-(divinyl ether/maleic acid)-N^6 -(2-aminoethyl)-NADP	63%
poly-(ethylene/maleic acid)-N^6 -(2-aminoethyl)-NADP	50%
poly-(methylvinyl ether/maleic acid)-N^6 -(2-aminoethyl)-NADP	60%

Same assay, conditions: catalyzed by beer yeast glucose-6-phosphate dehydrogenase

Molecule	Enzymatic reduction to N^6 -(2-aminoethyl)-NADPH (in words)
NCCNc1ncnc2c1ncn2[C@@H]1O[C@H](COP(=O)(O)OP(=O)([O-])OC[C@H]2O[C@@H]([n+]3cccc(C(N)=O)c3)[C@H](O)[C@@H]2O)[C@@H](O)[C@H]1OP(=O)(O)O [N^6-(2-aminoethyl)-NADP]	Quantitative reduction
